Patent US12708644B2, “Dendritic cell vaccination sequential to chemotherapy” (Excoso a.s., priority 2018, dated 2026)
Where two headings read alike, the source gives them in different places. Marks after values point to notes of the source that are not given here.

How the values were obtained:
[1] = tested on: women with newly diagnosed epithelial ovarian carcinoma
Method: The study was conducted as an open label, multicenter, three-arm phase II clinical trial in women with newly diagnosed epithelial ovarian carcinoma, who have undergone debulking surgery.
The planned number of chemotherapy cycles was 6 in all treatment groups (FIG. 1).
Results were calculated either by using as beginning of the trial period the time of first treatment or the time of randomization. Two pre-planned per protocol interim analyses of PFS and OS from the date of randomization were performed first at 6 months and second at 12 months after the last dose of standard of care chemotherapy of the last enrolled patient. […]
A log-rank test was used for comparing the PFS and OS distributions of the two treatment groups: • H01: PFS/OS group A=PFS/OS group C vs H11: PFS/OS group C≠PFS/OS group A, • H02: PFS/OS group B=PFS/OS group C vs H12: PFS/OS group C≠PFS/OS group B.
The hazard ratio (HR) was calculated using Cox proportional hazard regression. The estimate for the HR was based on fitting a proportional hazards regression model: λ(t)=λ0(t)*exp(βz), • wherein λ0(t) is the baseline hazard function for group C, λ(t) is the hazard function for group A/group B, z is a binary covariate (being 1 for group A/group B and 0 for group C), and exp(β) is the HR. Efficacy in the ITT Population

[2] = tested on: first-line patients of ovarian carcinoma; settings: cited from earlier work; for OS HR: compared to patients not treated with bevacizumab; for PFS HR: continuous after combination with carboplatin/paclitaxel
[3] = treatment group C (standard of care chemotherapy alone), shorter reporting time period
[4] = bevacizumab 7.5 mg/kg IV q3w, 12 months
[5] = bevacizumab 15 mg/kg IV q3w, 15 months

| Substance | patients who have died ([1]; standard of care arm (group C), per-protocol population, more than 3.5 years after inclusion) | SAEs reported [1, 3] | patients with SAEs [1, 3] | OS HR [2, 4] | OS HR ([2]; bevacizumab 7.5 mg/kg IV q3w, 12 months, listed as Bevacizumab) | PFS HR [2, 4] | OS HR [2, 5] | OS HR ([2]; bevacizumab 15 mg/kg IV q3w, 15 months, listed as Bevacizumab) | PFS HR [2, 5] | Safety ([2]; side effects e.g. gastrointestinal perforation and fistulae, wound healing complications, hypertension, thromboembolism or haemorrhage, congestive heart failure, neutropenia and infections) |
| --- | --- | --- | --- | --- | --- | --- | --- | --- | --- | --- |
| carboplatin and paclitaxel | about 40% | 14 | 9 | – | – | – | – | – | – | – |
| bevacizumab | – | – | – | 0.99 | 0.99^c | 0.86^c | 0.88 | 0.88^c | 0.7^c | an increased risk for |
